Test system: hypertensive subjects
Test: Adverse events (TEAEs, SAEs, AESI, study drug discontinuation, dose modification);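 note: counts of spontaneously reported adverse events in the Safety Analysis Set, subjects grouped by treatment actually received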
Assay type: in vivo, human
Details: Part 1
Source text: In analyses performed on the Safety Analysis Set, subjects will be analyzed according to their actual treatment received.

CC(=O)N[C@H]1CC[C@H](NC(=O)CN2CCN(c3nncc(-c4ccc(C)cc4)n3)CC2)CC1 [Compound A HBr]
On-treatment TEAE: General disorders and administration site conditions (50 mg QD (N = 28)): 2 (7.1) n (%)
On-treatment TEAE: General disorders and administration site conditions, Mild (50 mg QD (N = 28)): 1 (3.6) n (%)
On-treatment TEAE: Glomerular filtration rate decreased (50 mg QD (N = 28)): 0 n (%)
On-treatment TEAE: Headache (50 mg QD (N = 28)): 1 (3.6) n (%)
On-treatment TEAE: Headache, Mild (50 mg QD (N = 28)): 1 (3.6) n (%)
On-treatment TEAE: Hyperkalaemia (50 mg QD (N = 28)): 3 (10.7) n (%)
On-treatment TEAE: Hyperkalaemia, Mild (50 mg QD (N = 28)): 3 (10.7) n (%)
On-treatment TEAE: Hyperkalaemia, Moderate (50 mg QD (N = 28)): 0 n (%)
On-treatment TEAE: Hyperkalaemia, Severe (50 mg QD (N = 28)): 0 n (%)
On-treatment TEAE: Hypertension (50 mg QD (N = 28)): 2 (7.1) n (%)
On-treatment TEAE: Hypertension, Moderate (50 mg QD (N = 28)): 2 (7.1) n (%)
On-treatment TEAE: Infections and infestations (50 mg QD (N = 28)): 2 (7.1) n (%)
On-treatment TEAE: Infections and infestations, Mild (50 mg QD (N = 28)): 0 n (%)
On-treatment TEAE: Infections and infestations, Moderate (50 mg QD (N = 28)): 2 (7.1) n (%)
On-treatment TEAE: Investigations (50 mg QD (N = 28)): 1 (3.6) n (%)
On-treatment TEAE: Investigations, Mild (50 mg QD (N = 28)): 1 (3.6) n (%)
On-treatment TEAE: Investigations, Moderate (50 mg QD (N = 28)): 0 n (%)
On-treatment TEAE: Metabolism and nutrition disorders (50 mg QD (N = 28)): 5 (17.9) n (%)
On-treatment TEAE: Metabolism and nutrition disorders, Mild (50 mg QD (N = 28)): 5 (17.9) n (%)
On-treatment TEAE: Metabolism and nutrition disorders, Moderate (50 mg QD (N = 28)): 0 n (%)
On-treatment TEAE: Nervous system disorders (50 mg QD (N = 28)): 2 (7.1) n (%)
On-treatment TEAE: Nervous system disorders, Mild (50 mg QD (N = 28)): 1 (3.6) n (%)
On-treatment TEAE: Orthostatic hypotension (50 mg QD (N = 28)): 0 n (%)
On-treatment TEAE: Orthostatic hypotension, Mild (50 mg QD (N = 28)): 0 n (%)
On-treatment TEAE: Psychiatric disorders (50 mg QD (N = 28)): 0 n (%)
On-treatment TEAE: Psychiatric disorders, Moderate (50 mg QD (N = 28)): 0 n (%)
On-treatment TEAE: Urinary tract infection (50 mg QD (N = 28)): 2 (7.1) n (%)
On-treatment TEAE: Urinary tract infection, Mild (50 mg QD (N = 28)): 1 (3.6) n (%)
On-treatment TEAE: Vascular disorders (50 mg QD (N = 28)): 2 (7.1) n (%)
On-treatment TEAE: Vascular disorders, Mild (50 mg QD (N = 28)): 0 n (%)
On-treatment TEAE: Vascular disorders, Moderate (50 mg QD (N = 28)): 2 (7.1) n (%)
On-treatment TEAE: any, Mild (50 mg QD (N = 28)): 4 (14.3) n (%)
On-treatment TEAE: any, Moderate (50 mg QD (N = 28)): 6 (21.4) n (%)
On-treatment TEAE: any, Severe (50 mg QD (N = 28)): 0 n (%)
Subjects with any On-treatment TEAEs leading to withdrawal from study drug (50 mg QD (N = 28)): 0 n (%)
TEAE leading to permanent discontinuation from study drug: Activated partial thromboplastin time prolonged (50 mg QD (N = 28)): 0 n (%)
TEAE leading to permanent discontinuation from study drug: Cardiac disorders (50 mg QD (N = 28)): 0 n (%)
TEAE leading to permanent discontinuation from study drug: Coronary artery disease (50 mg QD (N = 28)): 0 n (%)
TEAE leading to permanent discontinuation from study drug: Dizziness (50 mg QD (N = 28)): 0 n (%)
TEAE leading to permanent discontinuation from study drug: Hyperkalaemia (50 mg QD (N = 28)): 0 n (%)
TEAE leading to permanent discontinuation from study drug: Hypertension (50 mg QD (N = 28)): 0 n (%)
TEAE leading to permanent discontinuation from study drug: Hypotension (50 mg QD (N = 28)): 0 n (%)
TEAE leading to permanent discontinuation from study drug: Investigations (50 mg QD (N = 28)): 0 n (%)
TEAE leading to permanent discontinuation from study drug: Metabolism and nutrition disorders (50 mg QD (N = 28)): 0 n (%)
TEAE leading to permanent discontinuation from study drug: Nervous system disorders (50 mg QD (N = 28)): 0 n (%)
TEAE leading to permanent discontinuation from study drug: Orthostatic hypotension (50 mg QD (N = 28)): 0 n (%)
TEAE leading to permanent discontinuation from study drug: Vascular disorders (50 mg QD (N = 28)): 0 n (%)
On-treatment TEAE: Blood and lymphatic system disorders (100 mg QD (N = 30)): 0 n (%)
On-treatment TEAE: Blood and lymphatic system disorders, Mild (100 mg QD (N = 30)): 0 n (%)
On-treatment TEAE: Blood creatinine increased (100 mg QD (N = 30)): 3 (10.0) n (%)
On-treatment TEAE: Blood creatinine increased, Mild (100 mg QD (N = 30)): 3 (10.0) n (%)
On-treatment TEAE: Cardiac disorders (100 mg QD (N = 30)): 0 n (%)
On-treatment TEAE: Cortisol decreased (100 mg QD (N = 30)): 0 n (%)
On-treatment TEAE: Cortisol decreased, Mild (100 mg QD (N = 30)): 0 n (%)
On-treatment TEAE: Dizziness (100 mg QD (N = 30)): 0 n (%)
On-treatment TEAE: Gastrointestinal disorders (100 mg QD (N = 30)): 2 (6.7) n (%)
On-treatment TEAE: Gastrointestinal disorders, Mild (100 mg QD (N = 30)): 2 (6.7) n (%)
On-treatment TEAE: General disorders and administration site conditions (100 mg QD (N = 30)): 0 n (%)
On-treatment TEAE: General disorders and administration site conditions, Mild (100 mg QD (N = 30)): 0 n (%)
On-treatment TEAE: Glomerular filtration rate decreased (100 mg QD (N = 30)): 5 (16.7) n (%)
On-treatment TEAE: Headache (100 mg QD (N = 30)): 0 n (%)
On-treatment TEAE: Headache, Mild (100 mg QD (N = 30)): 0 n (%)
On-treatment TEAE: Hyperkalaemia (100 mg QD (N = 30)): 8 (26.7) n (%)
On-treatment TEAE: Hyperkalaemia, Mild (100 mg QD (N = 30)): 8 (26.7) n (%)
On-treatment TEAE: Hyperkalaemia, Moderate (100 mg QD (N = 30)): 0 n (%)
On-treatment TEAE: Hyperkalaemia, Severe (100 mg QD (N = 30)): 0 n (%)
On-treatment TEAE: Hypertension (100 mg QD (N = 30)): 0 n (%)
On-treatment TEAE: Hypertension, Moderate (100 mg QD (N = 30)): 0 n (%)
On-treatment TEAE: Infections and infestations (100 mg QD (N = 30)): 2 (6.7) n (%)
On-treatment TEAE: Infections and infestations, Mild (100 mg QD (N = 30)): 0 n (%)
On-treatment TEAE: Infections and infestations, Moderate (100 mg QD (N = 30)): 2 (6.7) n (%)
On-treatment TEAE: Investigations (100 mg QD (N = 30)): 8 (26.7) n (%)
On-treatment TEAE: Investigations, Mild (100 mg QD (N = 30)): 6 (20.0) n (%)
On-treatment TEAE: Investigations, Moderate (100 mg QD (N = 30)): 2 (6.7) n (%)
On-treatment TEAE: Metabolism and nutrition disorders (100 mg QD (N = 30)): 8 (26.7) n (%)
On-treatment TEAE: Metabolism and nutrition disorders, Mild (100 mg QD (N = 30)): 8 (26.7) n (%)
On-treatment TEAE: Metabolism and nutrition disorders, Moderate (100 mg QD (N = 30)): 0 n (%)
On-treatment TEAE: Nervous system disorders (100 mg QD (N = 30)): 0 n (%)
On-treatment TEAE: Nervous system disorders, Mild (100 mg QD (N = 30)): 0 n (%)
On-treatment TEAE: Orthostatic hypotension (100 mg QD (N = 30)): 0 n (%)
On-treatment TEAE: Orthostatic hypotension, Mild (100 mg QD (N = 30)): 0 n (%)
On-treatment TEAE: Psychiatric disorders (100 mg QD (N = 30)): 2 (6.7) n (%)
On-treatment TEAE: Psychiatric disorders, Moderate (100 mg QD (N = 30)): 2 (6.7) n (%)
On-treatment TEAE: Urinary tract infection (100 mg QD (N = 30)): 1 (3.3) n (%)
On-treatment TEAE: Urinary tract infection, Mild (100 mg QD (N = 30)): 0 n (%)
On-treatment TEAE: Vascular disorders (100 mg QD (N = 30)): 1 (3.3) n (%)
On-treatment TEAE: Vascular disorders, Mild (100 mg QD (N = 30)): 0 n (%)
On-treatment TEAE: Vascular disorders, Moderate (100 mg QD (N = 30)): 1 (3.3) n (%)
On-treatment TEAE: any, Mild (100 mg QD (N = 30)): 9 (30.0) n (%)
On-treatment TEAE: any, Moderate (100 mg QD (N = 30)): 7 (23.3) n (%)
On-treatment TEAE: any, Severe (100 mg QD (N = 30)): 0 n (%)
Subjects with any On-treatment TEAEs leading to withdrawal from study drug (100 mg QD (N = 30)): 4 (13.3) n (%)
TEAE leading to permanent discontinuation from study drug: Activated partial thromboplastin time prolonged (100 mg QD (N = 30)): 1 (3.3) n (%)
TEAE leading to permanent discontinuation from study drug: Cardiac disorders (100 mg QD (N = 30)): 0 n (%)
TEAE leading to permanent discontinuation from study drug: Coronary artery disease (100 mg QD (N = 30)): 0 n (%)
TEAE leading to permanent discontinuation from study drug: Dizziness (100 mg QD (N = 30)): 0 n (%)
TEAE leading to permanent discontinuation from study drug: Hyperkalaemia (100 mg QD (N = 30)): 2 (6.7) n (%)
TEAE leading to permanent discontinuation from study drug: Hypertension (100 mg QD (N = 30)): 0 n (%)
TEAE leading to permanent discontinuation from study drug: Hypotension (100 mg QD (N = 30)): 1 (3.3) n (%)
TEAE leading to permanent discontinuation from study drug: Investigations (100 mg QD (N = 30)): 1 (3.3) n (%)
TEAE leading to permanent discontinuation from study drug: Metabolism and nutrition disorders (100 mg QD (N = 30)): 2 (6.7) n (%)
TEAE leading to permanent discontinuation from study drug: Nervous system disorders (100 mg QD (N = 30)): 0 n (%)
